From article PMC6933783 (ACS Omega, 2019)

What was measured:
[1] = target: human acetylcholinesterase (AChE) (Homo sapiens, UniProt P22303); experiment: Cholinesterase assay; format: biochemical; conditions: for αKi ± SE, AChE: uncompetitive contribution, Lineweaver-Burk plots
MAO-B = target: T1, MAO-B (Homo sapiens, UniProt P27338); experiment: Reversibility of MAO-B inhibition; format: biochemical; conditions: dilution assay, 30 min preincubation, Figure S3
T1 sequence (P27338 1-520): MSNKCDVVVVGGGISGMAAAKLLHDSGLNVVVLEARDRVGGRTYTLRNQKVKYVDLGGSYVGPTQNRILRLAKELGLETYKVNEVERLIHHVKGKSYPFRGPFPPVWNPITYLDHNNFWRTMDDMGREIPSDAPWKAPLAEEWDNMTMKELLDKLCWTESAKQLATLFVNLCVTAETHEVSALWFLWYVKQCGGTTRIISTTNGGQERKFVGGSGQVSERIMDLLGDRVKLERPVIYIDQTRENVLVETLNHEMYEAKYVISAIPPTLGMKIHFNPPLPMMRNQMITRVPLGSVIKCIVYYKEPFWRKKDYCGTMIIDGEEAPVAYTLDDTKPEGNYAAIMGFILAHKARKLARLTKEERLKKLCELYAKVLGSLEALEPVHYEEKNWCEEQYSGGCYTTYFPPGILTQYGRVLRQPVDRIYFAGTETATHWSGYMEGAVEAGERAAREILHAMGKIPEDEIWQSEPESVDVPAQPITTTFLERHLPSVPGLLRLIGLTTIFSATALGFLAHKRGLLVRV

Chain of human acetylcholinesterase (AChE) (P22303 32-617 isoform P22303-2 limits assumed): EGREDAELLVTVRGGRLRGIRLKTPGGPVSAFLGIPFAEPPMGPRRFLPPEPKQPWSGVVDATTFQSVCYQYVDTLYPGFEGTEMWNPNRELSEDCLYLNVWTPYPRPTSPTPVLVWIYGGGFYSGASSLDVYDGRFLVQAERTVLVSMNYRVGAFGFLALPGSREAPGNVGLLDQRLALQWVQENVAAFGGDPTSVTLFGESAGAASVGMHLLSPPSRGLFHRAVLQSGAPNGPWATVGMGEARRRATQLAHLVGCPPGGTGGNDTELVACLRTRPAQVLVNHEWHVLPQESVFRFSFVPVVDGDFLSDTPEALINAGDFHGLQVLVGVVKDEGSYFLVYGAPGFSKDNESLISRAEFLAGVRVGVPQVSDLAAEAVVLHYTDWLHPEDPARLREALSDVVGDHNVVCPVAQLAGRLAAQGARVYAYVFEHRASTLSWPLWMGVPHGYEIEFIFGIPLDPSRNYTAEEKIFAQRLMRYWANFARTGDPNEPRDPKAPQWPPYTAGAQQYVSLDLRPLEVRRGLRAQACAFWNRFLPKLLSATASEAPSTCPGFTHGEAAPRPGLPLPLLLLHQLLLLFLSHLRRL

SMILES	Ki [1] [µM]	αKi ± SE, AChE [1] [µM]	reversibility of MAO-B inhibition (MAO-B)
C[C@@H]1CCCN1CCCCOc1ccc2occc(=O)c2c1 [Compound 27]	9.23 ± 5.01	19.0 ± 4.1	–
O=c1ccoc2ccc(OCCCCN3CCCCC3)cc12 [Compound 7, 6-(4-(piperidin-1-yl)butoxy)-4H-chromen-4-one]	–	–	reversibility of MAO-B inhibition was exemplarily demonstrated
CN1CCN(CCCCOc2ccc3occc(=O)c3c2)CC1 [Compound 15, 6-(4-(4-Methylpiperazin-1-yl)butoxy)-4H-chromen-4-one]	2.06 ± 0.56	5.36 ± 0.70	–
